What was measured:
[1] = test system: isolated mitochondria (HeLa and RS4;11 cells); assay: Graphene sensor measurement of extra-mitochondrial buffer pH of tethered isolated mitochondria; design: species or system mammalian
From the text: Here, is presented an electronic method to detect extra-mitochondrial pH of isolated mitochondria, based on tethering the mitochondria to one-atom thin graphene. The mitochondria are tethered via graphene bound antibodies which recognize the mitochondrial outer membrane protein, TOM20. Graphene is an excellent conductor and changes in the pH surrounding the mitochondria can change the graphene conductance and be detected electrically. Being optically transparent, the graphene layer also permits optical interrogation of the mitochondria concurrent with analysis of ionic changes.
An isolation buffer containing 225 mM mannitol, 75 mM sucrose, 0.5 mM EGTA, 20 mM HEPES, 0.5% (w/v) BSA, 1× protease inhibitor, pH 7.2 with 1 M KOH was used. […]
After mitochondria isolation, about 6 μg of mitochondrial protein of isolated mitochondria was loaded to a graphene device and incubated for 15 min at room temperature. […] The electrical measurement of Ids versus time and the fluorescence time-lapse measurement of TMRE signal were collected. […] In contrast, fluorescence images were taken once every 5 s for the experiments with CCCP or every 2 min for the experiments with BIM-BH3. […]
Control experiments were carried out in a similar manner with the only difference being the lack of isolated mitochondria. Software was used to analyze all electrical data and the fluorescence data that were exported from ImageJ software. […]

[2] = test system: isolated mitochondria (HeLa and RS4;11 cells); assay: TMRE fluorescence measurement of inner membrane potential (ΔΨm) of tethered isolated mitochondria; design: species or system mammalian; details: TMRE signal
Protocol: Before isolation, the confluent cells were stained with 100 nM MITOTRACKER™ Green FM and 40 nM TMRE for 1 hour. Subsequent isolation steps used solutions with 40 nM TMRE because TMRE is a potentiometric dye, which fluctuates in and out of the mitochondria depending on their inner membrane potential. 40 nM was determined as the optimal concentration. Using an inverted microscope with two LED excitation sources (490 nm & 565 nm the red and green fluorescence signals from the MITOTRACKER™ and TMRE were visualized with 20× objective at 200 μm×300 μm, exposure time one second. To process and analyze the images, ImageJ software was used. For the entire field of view analysis, fluorescence intensity was measured from the field of view. In contrast, for single mitochondrion analysis, regions of interest enclosing the mitochondria were defined and three more identical copies of that region of interest were used to define the background noise. Fluorescence signal of the mitochondria was assigned as the measured signal subtracting the noise average. […] The electrical measurement of Ids versus time and the fluorescence time-lapse measurement of TMRE signal were collected. […] In contrast, fluorescence images were taken once every 5 s for the experiments with CCCP or every 2 min for the experiments with BIM-BH3. […]

[3] = exogenous agent, after BIM-BH3 induced MOMP

Compound	buffer pH (pHbuffer) ([1]; agent added to mitochondria on graphene device in KCl buffer with 5 mM succinate, 2 μM rotenone)	ΔΨm ([2]; agent added to mitochondria on graphene device in KCl buffer)	buffer acidification after BIM-BH3 induced MOMP [1, 3]	ΔΨm after BIM-BH3 induced MOMP [2, 3]
N#CC(C#N)=NNc1cccc(Cl)c1 [CCCP]	increase	decrease		
cytochrome c [cytc]			blocks buffer acidification	rescues

From US10718756B2, “Mitochondrial apoptotic sensor” (The Regents of the University of California, priority 2016, dated 2020)
